The term pIC50 denotes −log10 of the IC50, conventionally taken in molar units.

Among the data in patent US20230062486A1, “KRAS G12C INHIBITOR AND PHARMACEUTICAL USE THEREOF” (Betta Pharmaceuticals Co., LTD, priority 2019, published 2023) are IC50 values, retold here.

One experiment relates to MIA-PACA-2 cells. As to the kind of experiment: Cell proliferation assay, MIA-PACA-2 cells (Cell-titer Glo). The format is cell-based. To be noted: Homo sapiens; inhibiting MIA-PACA-2 cells, 96-well ultra-low adsorption plate, 96 h incubation, Cell-titer Glo luminescence. As for the experimental part: (§1) Pave the MIA-PACA-2 cells into a 96-well ultra-low adsorption plate at 600 cells, 160 μL/well. After incubating overnight, compound solutions of gradient concentration was prepared, and added 40 μL of DMSO solution of the test compound of each concentration to the cells of each well. The final concentration of the compound is 10000, 2000, 400, 80, 16, 3.2, 0.64, 0.12, 0.025, 0 nM (the final concentration of DMSO is 0.25%). Incubated for 96 h at 37° C. and 5% CO2. 50 μL of Cell-titer Glo working solution was added to each well, shaked and mixed, and incubated at room temperature for 10 minutes. The multi-functional microplate reader read the luminescence value, and converted the luminescence value reading into inhibition percentage.
(§2) Inhibition percentage=(maximum value−reading)/(maximum value−minimum value)*100.
(§3) The “maximum value” was the DMSO control, the “minimum value” indicates the cell-free control group.
(§4) Graphpad Prism software was used to perform curve fitting and obtain IC50 value.
Refer to Table 2 for the IC50 data of some compounds in the examples inhibiting MIA-PACA-2 cells.

A further experiment deals with H358 cells. The experiment is described as follows: Cell proliferation assay, H358 cells (Cell-titer Glo). The format is cell-based. To be noted: Homo sapiens, NCI-H358; inhibiting H358 cells, 96-well ultra-low adsorption plate, 96 h incubation, Cell-titer Glo luminescence. As for the experimental part:
as §1, with “the H358” for “the MIA-PACA-2”, “cells on” for “cells into”, “plate with 2000 cells and 190” for “plate at 600 cells, 160”, “added 10” for “added 40”, “10000, 3333.3, 1111.1, 370.4, 123.5, 41.2, 13.7, 4.6, 1.5,” for “10000, 2000, 400, 80, 16, 3.2, 0.64, 0.12, 0.025,”
as §2, §3, §4
Refer to table 3 for the IC50 data of some compounds in the Examples for inhibiting H358 cells.

pIC50: −log10 of the molar value.

Take `C=CC(=O)N1CCn2c(nnc2-c2cc(F)c(-c3c(C)ccc4[nH]ncc34)c(Cl)c2)C1` [Example 5, 1-(3-(3-chloro-5-fluoro-4-(5-methyl-1H-indazol-4-yl)phenyl)-5,6-dihydro-[1,2,4]triazolo[4,3-a]pyrazin-7(8H)-yl)prop-2-en-1-one]: the pIC50 with MIA-PACA-2 cells and in the experiment with H358 cells was 5.00 to 6.00 throughout. In the experiment on MIA-PACA-2 cells, `C=CC(=O)N1CCn2c(nc(-c3ccccc3C(C)C)c2-c2cc(F)c(-c3c(F)ccc(Cl)c3O)c(Cl)c2)C1` [Example 13, 1-(3-(2,3′-dichloro-6,6′-difluoro-2′-hydroxy-[1,1′-biphenyl]-4-yl)-2-(2-isopropylphenyl)-5,6-dihydroimidazo[1,2-a]pyrazin-7(8H)-yl)prop-2-en-1-one] had a pIC50 not below 6.00.

For `C=CC(=O)N1CCn2c(nnc2-c2cc(F)c(-c3c(O)c(Cl)cc(Cl)c3F)c(Cl)c2)C1` [Example 3, 1-(3-(2,3′,5′-trichloro-2′,6-difluoro-6′-hydroxy-[1,1′-biphenyl]-4-yl)-5,6-dihydro-[1,2,4]triazolo[4,3-a]pyrazin-7(8H)-yl)prop-2-en-1-one], the pIC50 with MIA-PACA-2 cells and in the experiment with H358 cells was not below 6.00 each time.

Regarding `C=CC(=O)N1CCn2c(nnc2-c2cc(F)c(-c3c(O)ccc(Cl)c3F)c(Cl)c2)C1` [Example 2, 1-(3-(2,3′-dichloro-2′,6-difluoro-6′-hydroxy-[1,1′-biphenyl]-4-yl)-5,6-dihydro-[1,2,4]triazolo[4,3-a]pyrazin-7(8H)-yl)prop-2-en-1-one], the pIC50 in the experiment with MIA-PACA-2 cells and in the experiment on H358 cells was not below 6.00 in each case. As to `C=CC(=O)N1CCn2c(nnc2-c2cc(F)c(-c3c(F)ccc(Cl)c3N)c(Cl)c2)C1` [Example 7, 1-(3-(2′-amino-2,3′-dichloro-6,6′-difluoro-[1,1′-biphenyl]-4-yl)-5,6-dihydro-[1,2,4]triazolo[4,3-a]pyrazin-7(8H)-yl)prop-2-en-1-one], the pIC50 in the experiment with MIA-PACA-2 cells and in the experiment with H358 cells was less than 5.00 throughout. `C=CC(=O)N1CCn2c(nnc2-c2cc(F)c(-c3c(O)cccc3F)c(Cl)c2)C1` [Example 1, 1-(3-(2-chloro-2′,6-difluoro-6′-hydroxy-[1,1′-biphenyl]-4-yl)-5,6-dihydro-[1,2,4]triazolo[4,3-a]pyrazin-7(8H)-yl)prop-2-en-1-one]: the negative logarithm of the IC50 (pIC50) in the experiment with MIA-PACA-2 cells and in the experiment with H358 cells was 5.00 to 6.00 throughout. `C=CC(=O)N1CCn2c(nnc2-c2cc(Cl)c(-c3c(O)cccc3F)c(OCC(F)(F)F)c2)C1` [Example 17, 1-(3-(2-chloro-2′-fluoro-6′-hydroxy-6-(2,2,2-trifluoroethoxy)-[1,1′-biphenyl]-4-yl)-5,6-dihydro-[1,2,4]triazolo[4,3-a]pyrazin-7(8H)-yl)prop-2-en-1-one] had a pIC50 in the experiment with MIA-PACA-2 cells not below 6.00.

The compound `C=CC(=O)N1CCn2c(nnc2-c2cc(F)c(-c3c(O)cccc3F)c(C=C)c2)C1` [Example 11, 1-(3-(2,2′-difluoro-6′-hydroxy-6-vinyl-[1,1′-biphenyl]-4-yl)-5,6-dihydro-[1,2,4]triazolo[4,3-a]pyrazin-7(8H)-yl)prop-2-en-1-one] gave a pIC50 in the experiment on MIA-PACA-2 cells of less than 5.00. As to `C=C(F)C(=O)N1CCn2c(nnc2-c2cc(F)c(-c3c(O)cccc3F)c(Cl)c2)C1` [Example 4, 1-(3-(2-chloro-2′,6-difluoro-6′-hydroxy-[1,1′-biphenyl]-4-yl)-5,6-dihydro-[1,2,4]triazolo[4,3-a]pyrazin-7(8H)-yl)-2-fluoroprop-2-en-1-one], the pIC50 in the experiment with MIA-PACA-2 cells and with H358 cells was less than 5.00 each time. For `C=CC(=O)N1CCn2c(nc(C(F)(F)F)c2-c2cc(F)c(-c3c(F)ccc(Cl)c3O)c(Cl)c2)C1` [Example 18, 1-(3-(2,3′-dichloro-6,6′-difluoro-2′-hydroxy-[1,1′-biphenyl]-4-yl)-2-(trifluoromethyl)-5,6-dihydroimidazo[1,2-a]pyrazin-7(8H)-yl)prop-2-en-1-one], in the experiment on MIA-PACA-2 cells, the negative-log IC50 (pIC50) was less than 5.00. Same read-out and setting: in the case of `C=CC(=O)N1CCn2c(nc(-c3ccccc3C(C)C)c2-c2cc(F)c(-c3c(O)cccc3F)c(Cl)c2)C1` [Example 12, 1-(3-(2-chloro-2′,6-difluoro-6′-hydroxy-[1,1′-biphenyl]-4-yl)-2-(2-isopropylphenyl)-5,6-dihydroimidazo[1,2-a]pyrazin-7(8H)-yl)prop-2-en-1-one] it was less than 5.00. Turning to `C=CC(=O)N1CCn2c(-c3cc(F)c(-c4c(O)cccc4F)c(Cl)c3)cnc2C1` [Example 6, 1-(3-(2-chloro-2′,6-difluoro-6′-hydroxy-[1,1′-biphenyl]-4-yl)-5,6-dihydroimidazo[1,2-a]pyrazin-7(8H)-yl)prop-2-en-1-one], the figures for the pIC50 in the experiment on MIA-PACA-2 cells and with H358 cells were not below 6.00 and 5.00 to 6.00, respectively. `C=CC(=O)N1CCn2c(nnc2-c2cc(Cl)c(-c3c(F)ccc(Cl)c3O)c(OCC(F)(F)F)c2)C1` [Example 16, 1-(3-(2,3′-dichloro-6′-fluoro-2′-hydroxy-6-(2,2,2-trifluoroethoxy)-[1,1′-biphenyl]-4-yl)-5,6-dihydro-[1,2,4]triazolo[4,3-a]pyrazin-7(8H)-yl)prop-2-en-1-one] showed a pIC50 in the experiment with MIA-PACA-2 cells of 5.00 to 6.00. For the compound `C=CC(=O)N1CCn2c(nc(-c3ccccc3C(C)C)c2-c2cc(F)c(-c3c(O)c(Cl)cc(Cl)c3F)c(Cl)c2)C1` [Example 14, 1-(2-(2-isopropylphenyl)-3-(2,3′,5′-trichloro-2′,6-difluoro-6′-hydroxy-[1,1′-biphenyl]-4-yl)-5,6-dihydroimidazo[1,2-a]pyrazin-7(8H)-yl)prop-2-en-1-one], the pIC50 in the experiment with MIA-PACA-2 cells is 5.00 to 6.00. Same read-out and setting: in the case of `C=CC(=O)N1CCn2c(cnc2-c2cc(F)c(-c3c(O)c(Cl)cc(Cl)c3F)c(Cl)c2)C1` [Example 10, 1-(3-(2,3′,5′-trichloro-2′,6-difluoro-6′-hydroxy-[1,1′-biphenyl]-4-yl)-5,6-dihydroimidazo[1,5-a]pyrazin-7(8H)-yl)prop-2-en-1-one] it was less than 5.00; in that of `C=CC(=O)N1CCn2c(cnc2-c2cc(F)c(-c3c(F)ccc(Cl)c3O)c(Cl)c2)C1` [Example 9, 1-(3-(2,3′-dichloro-6,6′-difluoro-2′-hydroxy-[1,1′-biphenyl]-4-yl)-5,6-dihydroimidazo[1,5-a]pyrazin-7(8H)-yl)prop-2-en-1-one], 5.00 to 6.00.

Turning to `C=CC(=O)N1CCn2c(-c3cc(F)c(-c4c(F)ccc(Cl)c4O)c(Cl)c3)cnc2C1` [Example 15, 1-(3-(2,3′-dichloro-6,6′-difluoro-2′-hydroxy-[1,1′-biphenyl]-4-yl)-5,6-dihydroimidazo[1,2-a]pyrazin-7(8H)-yl)prop-2-en-1-one], in the experiment on MIA-PACA-2 cells, the pIC50 was less than 5.00.

As to `C=CC(=O)N1CCn2c(cnc2-c2cc(F)c(-c3c(O)cccc3F)c(Cl)c2)C1` [Example 8, 1-(3-(2-chloro-2′,6-difluoro-6′-hydroxy-[1,1′-biphenyl]-4-yl)-5,6-dihydroimidazo[1,5-a]pyrazin-7(8H)-yl)prop-2-en-1-one], the pIC50 in the experiment on MIA-PACA-2 cells and with H358 cells was 5.00 to 6.00 in each case.
